Assay results as given in patent publication US20250325552A1, “SUBSTITUTED THIADIAZOLYL DERIVATIVES AS DNA POLYMERASE THETA INHIBITORS” (IDEAYA Biosciences, Inc., priority 2020, published 2025).

Target: Polθ theta (1-899) (hPolQ) (Homo sapiens (Human), UniProt O75417)
Assay: Biological Assay 1: Polθ ATPase activity, NADH oxidation-coupled enzymatic assay (10 nM enzyme, 30 min)
Format: biochemical
Settings: Polθ (1-899) 10 nM, 100 μM ATP, 300 nM dT50 ssDNA; Examples 1 to 268; read-out: ATPase NADH coupling:Standard Screening:hPolQ IC50
Method: The ability of the compounds of Formula (I), (II), (III), (IV), or Table 1 (Examples 1 to Example 268) to inhibit ATPase activity of Polθ theta (1-899) was determined using the assay described below.
Polθ Theta ATPase activity was determined by measuring the rate of ATP turn over in a NADH oxidation-coupled enzymatic assay. 10-point dilution series of compounds were used in a 384 well format for the inhibition assays. Polθ theta (1-899) (10 nM) in assay buffer (20 mM Tris HCl (pH 7.80), 80 mM KCl, 10 mM MgCl2, 1 mM DTT, 0.01% BSA, 0.01% Tween, 5% glycerol) was transferred to the test wells (20 μL), except the low control wells (20 μL of assay buffer was added to the low control wells). The plate was then incubated at room temperature for 15 min. An equal volume (20 μL) of 100 μM ATP, 300 nM dT50 (single-stranded DNA (ssDNA) containing 50 thymine bases), 300 μM NADH, 6 mM PEP, 10 U/mL lactate dehydrogenase and U/mL pyruvate kinase in assay buffer was added to all the test wells. The plate was then centrifuged at 1000 rpm for 1 min. The reaction was monitored for 30 min by measuring absorbance (λ=340 nm) in a Tecan Spark multimode plate reader every minute. The high control (DMSO with enzyme) with low absorbance intensity represents no inhibition of ATPase reaction while the low control (DMSO with buffer) with high absorbance intensity represents full inhibition of ATPase activity. Slope of the reaction progress curves were used to calculate the rate of ATP hydrolysis. The rates were used to determine the percent inhibition using a four-parameter inhibition model to generate IC50, Hill slope and max inhibition.

Sequence of Polθ theta (1-899) (hPolQ) (O75417 1-899): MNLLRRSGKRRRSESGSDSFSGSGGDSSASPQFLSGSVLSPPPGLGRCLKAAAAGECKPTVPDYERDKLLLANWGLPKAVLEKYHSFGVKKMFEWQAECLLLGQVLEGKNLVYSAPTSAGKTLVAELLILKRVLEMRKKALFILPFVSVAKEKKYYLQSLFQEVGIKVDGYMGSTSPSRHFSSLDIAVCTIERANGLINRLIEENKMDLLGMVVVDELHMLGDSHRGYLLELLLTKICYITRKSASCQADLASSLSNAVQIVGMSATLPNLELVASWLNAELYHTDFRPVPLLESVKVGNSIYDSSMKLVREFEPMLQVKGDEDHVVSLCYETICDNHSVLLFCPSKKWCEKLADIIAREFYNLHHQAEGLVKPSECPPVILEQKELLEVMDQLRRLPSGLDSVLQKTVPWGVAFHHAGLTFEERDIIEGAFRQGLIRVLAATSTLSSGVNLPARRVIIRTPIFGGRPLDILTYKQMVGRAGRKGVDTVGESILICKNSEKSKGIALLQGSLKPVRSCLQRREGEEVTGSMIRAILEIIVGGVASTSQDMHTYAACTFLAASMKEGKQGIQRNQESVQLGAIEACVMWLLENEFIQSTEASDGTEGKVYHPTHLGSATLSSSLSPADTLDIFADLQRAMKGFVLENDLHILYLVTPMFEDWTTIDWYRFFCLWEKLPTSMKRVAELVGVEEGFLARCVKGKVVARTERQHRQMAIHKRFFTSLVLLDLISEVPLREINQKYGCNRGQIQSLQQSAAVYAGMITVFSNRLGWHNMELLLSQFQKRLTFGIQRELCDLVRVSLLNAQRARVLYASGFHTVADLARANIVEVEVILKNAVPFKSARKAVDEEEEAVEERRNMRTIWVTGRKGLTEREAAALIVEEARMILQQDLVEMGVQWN

Cc1cc(-c2ccccc2OC(F)F)c(C(=O)Nc2nnc(OCc3ccc(C(C)(C)O)cn3)s2)cn1 [Example 59, 4-(2-(difluoromethoxy)phenyl)-N-(5-((5-(2-hydroxypropan-2-yl)pyridin-2-yl)methoxy)-1,3,4-thiadiazol-2-yl)-6-methylnicotinamide]
IC50: ≤ 200 nM

COc1cnc(Cl)cc1-c1cc(C)ncc1C(=O)Nc1nnc(OCc2cnc(CO)cn2)s1 [Example 145, 2′-chloro-N-(5-((5-(hydroxymethyl)pyrazin-2-yl)methoxy)-1,3,4-thiadiazol-2-yl)-5′-methoxy-6-methyl-(4,4′-bipyridine)-3-carboxamide]
IC50: ≤ 200 nM

COc1cnc(Br)cc1-c1cc(C)ncc1C(=O)Nc1nnc(OC[C@@H]2COCCO2)s1 [Example 235, (S)—N-(5-((1,4-dioxan-2-yl)methoxy)-1,3,4-thiadiazol-2-yl)-2′-bromo-5′-methoxy-6-methyl-(4,4′-bipyridine)-3-carboxamide]
IC50: ≤ 200 nM

COc1cnc(Cl)cc1-c1cc(C)ncc1C(=O)Nc1nnc(OCC2CS(=O)(=O)C2)s1 [Example 166, 2′-chloro-N-(5-((1,1-dioxidothietan-3-yl)methoxy)-1,3,4-thiadiazol-2-yl)-5′-methoxy-6-methyl-(4,4′-bipyridine)-3-carboxamide]
IC50: ≤ 200 nM

COc1cnc(C)cc1-c1cc(C)ncc1C(=O)Nc1nnc(OCc2ccc(C(=O)O)cn2)s1 [Example 90, 6-(((5-(5′-methoxy-2′,6-dimethyl-(4,4′-bipyridine)-3-amido)-1,3,4-thiadiazol-2-yl)oxy)methyl)pyridine-3-carboxylic acid]
IC50: ≤ 200 nM

COc1cnc(Cl)cc1-c1cc(C)ncc1C(=O)Nc1nnc(OCC23CC(C(C)(C)F)(C2)C3)s1 [Example 163, 2′-chloro-N-(5-((3-(2-fluoropropan-2-yl)bicyclo(1.1.1)pentan-1-yl)methoxy)-1,3,4-thiadiazol-2-yl)-5′-methoxy-6-methyl-(4,4′-bipyridine)-3-carboxamide]
IC50: ≤ 200 nM

COc1cccc(F)c1-c1cnncc1C(=O)Nc1nnc(OCc2ccc(C(C)(C)O)cn2)s1 [Example 81, 5-(2-fluoro-6-methoxyphenyl)-N-(5-((5-(2-hydroxypropan-2-yl)pyridin-2-yl)methoxy)-1,3,4-thiadiazol-2-yl)pyridazine-4-carboxamide]
IC50: ≤ 200 nM

COc1cccc(COc2nnc(NC(=O)c3cnc(C)cc3-c3c(F)cccc3OC)s2)n1 [Example 91, 4-(2-fluoro-6-methoxyphenyl)-N-(5-((6-methoxypyridin-2-yl)methoxy)-1,3,4-thiadiazol-2-yl)-6-methylpyridine-3-carboxamide]
IC50: ≤ 200 nM

COc1cnc(Cl)cc1-c1cc(C)ncc1C(=O)Nc1nnc(OC[C@@]2(F)CCOC2)s1 (single isomer, unassigned) [Example 263]
IC50: ≤ 200 nM

COc1cccc(F)c1-c1cc(C)ncc1C(=O)Nc1nnc(OCc2ccc(CO)cn2)s1 [Example 14, 4-(2-fluoro-6-methoxyphenyl)-N-(5-((5-(hydroxymethyl)pyridin-2-yl)methoxy)-1,3,4-thiadiazol-2-yl)-6-methylpyridine-3-carboxamide]
IC50: ≤ 200 nM

COc1cnc(Cl)cc1-c1cc(C)ncc1C(=O)Nc1nnc(OC[C@@H]2COCC(C)(C)O2)s1 (single isomer, unassigned) [Example 220]
IC50: ≤ 200 nM

Cc1cc(-c2c(F)cccc2OC(F)F)c(C(=O)Nc2nnc(OCc3ccc(CO)cn3)s2)cn1 [Example 25, 4-(2-(difluoromethoxy)-6-fluorophenyl)-N-(5-((5-(hydroxymethyl)pyridin-2-yl)methoxy)-1,3,4-thiadiazol-2-yl)-6-methylnicotinamide]
IC50: ≤ 200 nM

COc1cnc(Cl)cc1-c1cc(C)ncc1C(=O)Nc1nnc(OCc2ccc(OC(F)F)cn2)s1 [Example 113, 2′-chloro-N-(5-((5-(difluoromethoxy)pyridin-2-yl)methoxy)-1,3,4-thiadiazol-2-yl)-5′-methoxy-6-methyl-(4,4′-bipyridine)-3-carboxamide]
IC50: ≤ 200 nM

COc1ccccc1-c1cc(C)ncc1C(=O)Nc1nnc(OCc2cccc(CO)n2)s1 [Example 6, N-(5-((6-(hydroxymethyl)pyridin-2-yl)methoxy)-1,3,4-thiadiazol-2-yl)-4-(2-methoxyphenyl)-6-methylpyridine-3-carboxamide]
IC50: ≤ 200 nM

COc1cccc(F)c1-c1cc(C)ncc1C(=O)Nc1nnc(OCc2ccc([S@@](C)(=N)=O)cc2)s1 [Example 115, 4-(2-fluoro-6-methoxyphenyl)-6-methyl-N-(5-((4-((S)—S-methylsulfonimidoyl)benzyl)oxy)-1,3,4-thiadiazol-2-yl)nicotinamide]
IC50: ≤ 200 nM

Cc1cc(C2CCOCC2)c(C(=O)Nc2nnc(OCc3ccc(Cl)cn3)s2)cn1 [Example 18, N-(5-((5-chloropyridin-2-yl)methoxy)-1,3,4-thiadiazol-2-yl)-6-methyl-4-(tetrahydro-2H-pyran-4-yl)nicotinamide]
IC50: 1000 to 10000 nM

COc1cnc(C)cc1-c1cc(C)ncc1C(=O)Nc1nnc(OCc2ccc(OC(C)C)cn2)s1 [Example 74, N-(5-((5-isopropoxypyridin-2-yl)methoxy)-1,3,4-thiadiazol-2-yl)-5′-methoxy-2′,6-dimethyl-(4,4′-bipyridine)-3-carboxamide]
IC50: ≤ 200 nM

COc1cnc(Cl)cc1-c1cc(C)ncc1C(=O)Nc1nnc(OC[C@@H]2CO[C@@H](C)C2)s1 (single isomer, unassigned) [Example 254]
IC50: ≤ 200 nM

CCc1cc(-c2cc(C)ncc2C(=O)Nc2nnc(OCc3ccc(C(C)(C)O)cn3)s2)c(OC)cn1 [Example 106, 2′-ethyl-N-(5-((5-(2-hydroxypropan-2-yl)pyridin-2-yl)methoxy)-1,3,4-thiadiazol-2-yl)-5′-methoxy-6-methyl-[4,4′-bipyridine]-3-carboxamide]
IC50: ≤ 200 nM

COc1cccc(F)c1-c1cccnc1C(=O)Nc1nnc(OCc2ccc(Cl)cn2)s1 [Example 19, N-(5-((5-chloropyridin-2-yl)methoxy)-1,3,4-thiadiazol-2-yl)-3-(2-fluoro-6-methoxyphenyl)picolinamide]
IC50: 1000 to 10000 nM

COc1cnc(Cl)c(F)c1-c1cc(C)ncc1C(=O)Nc1nnc(OC[C@H]2COCCO2)s1 [Example 240, N-(5-(((R)-1,4-dioxan-2-yl)methoxy)-1,3,4-thiadiazol-2-yl)-2′-chloro-3′-fluoro-5′-methoxy-6-methyl-(4,4′-bipyridine)-3-carboxamide]
IC50: ≤ 200 nM

COc1cnc(C)cc1-c1cc(C)ncc1C(=O)Nc1nnc(OC[C@H]2C[C@@H](O)C2)s1 [Example 118, N-(5-(((1s,3s)-3-hydroxycyclobutyl)methoxy)-1,3,4-thiadiazol-2-yl)-5′-methoxy-2′,6-dimethyl-[4,4′-bipyridine]-3-carboxamide]
IC50: ≤ 200 nM

COc1cccc(F)c1-c1cc(C)ncc1C(=O)Nc1nnc(OCc2ccc3c(n2)CCOC3)s1 [Example 102, 4-(2-fluoro-6-methoxyphenyl)-6-methyl-N-(5-(5H,7H,8H-pyrano(4,3-b)pyridin-2-ylmethoxy)-1,3,4-thiadiazol-2-yl)pyridine-3-carboxamide]
IC50: ≤ 200 nM

COc1cnc(Br)cc1-c1cc(C)ncc1C(=O)Nc1nnc(OC[C@@H]2CCOC2)s1 (single isomer, unassigned) [Example 245]
IC50: ≤ 200 nM
